Among the data in patent US10301295B2, “Herbicidal compounds” (Syngenta Participations AG, priority 2014, dated 2019) are pest or weed control values, retold here.

Test in all cases: Glasshouse assay for herbicidal activity, pre-/post-emergence (percentage phytotoxicity)
What all share (assay type): in vivo

One assay has as its system Lolium perenne (LOLPE). The following applies: Lolium perenne, Rate 250 g/ha, 100%=total damage, 0%=no damage. The protocol:
(§1) Seeds of a variety of monocotyledonous and dicotyledonous test plants are sown in standard soil in pots. The plants are cultivated for one day (for pre-emergence) or for about 12 days (for post-emergence) under controlled conditions in a glasshouse (warm climate species at 24/18° C., cool climate species at 20/16° C., both at day/night; 16 hours light; 65% humidity). The test plants are then grown on, in a glasshouse (greenhouse) under controlled conditions (warm climate species at 24/18° C., cool climate species at 20/16° C., both at day/night; 16 hours light; 65% humidity) and are watered twice daily. 15 days after application of the test herbicide (15DAA) (for post-emergence), and 20 days after application of the test herbicide (20DAA) (for pre-emergence), the test plants are evaluated visually, and an assessed percentage phytotoxicity score is given for each herbicidal application on each plant species (with 100%=total damage to plant; 0%=no damage to plant). The plant species tested are as follows: Alopecurus myosuroides (ALOMY), Avena fatua (AVEFA), Lolium perenne (LOLPE), Echinochloa crus-galli (ECHCG).

The test system of assay [1] is Echinochloa crus-galli (ECHCG). The following applies: Echinochloa crus-galli, Rate 250 g/ha, 100%=total damage, 0%=no damage. The method, then: as §1
The test system of the next assay is Avena fatua (AVEFA). The following applies: Avena fatua, Rate 250 g/ha, 100%=total damage, 0%=no damage. The method, then: as §1
In assay [2] the test system is Alopecurus myosuroides (ALOMY). Particulars: Alopecurus myosuroides, Rate 250 g/ha, 100%=total damage, 0%=no damage. The protocol:
as §1

Setting [3] is: post-emergence, 360 h, post-emergence, visual assessment 15 DAA, read-out: Post-emergence herbicidal activity (percentage phytotoxicity), LOLPE POST.
The mark [4] stands for this setting: pre-emergence, 480 h, pre-emergence, visual assessment 20 DAA, read-out: Pre-emergence herbicidal activity (percentage phytotoxicity), LOLPE PRE.
[5] abbreviates: post-emergence, 360 h, post-emergence, visual assessment 15 DAA, read-out: Post-emergence herbicidal activity (percentage phytotoxicity), ECHCG POST.
Setting [6] is: pre-emergence, 480 h, pre-emergence, visual assessment 20 DAA, read-out: Pre-emergence herbicidal activity (percentage phytotoxicity), ECHCG PRE.
The mark [7] stands for this setting: post-emergence, 360 h, post-emergence, visual assessment 15 DAA, read-out: Post-emergence herbicidal activity (percentage phytotoxicity), AVEFA POST.
Setting [8] is: pre-emergence, 480 h, pre-emergence, visual assessment 20 DAA, read-out: Pre-emergence herbicidal activity (percentage phytotoxicity), AVEFA PRE.
Where [9] appears, read: 360 h, post-emergence, visual assessment 15 DAA, read-out: Post-emergence herbicidal activity (percentage phytotoxicity), ALOMY POST.
[10] abbreviates: 480 h, pre-emergence, visual assessment 20 DAA, read-out: Pre-emergence herbicidal activity (percentage phytotoxicity), ALOMY PRE.

Read-outs that look alike come from different tables or passages of the source.

For `Cc1cc(C)c(C2C(=O)C[C@@H](CCNC(=O)C3=NOC(C)(C)C3)C2=O)c(C)c1` (stereo partly drawn) [Compound A102], the pest or weed control at 250 g/ha amounted to 100% with Lolium perenne (LOLPE) (setting [3]); 100% with Lolium perenne (LOLPE) (setting [4]); 100% in assay [1] (setting [5]); 100% in assay [1] (setting [6]); 100% in the assay with Avena fatua (AVEFA) (setting [7]); 90% in the assay with Avena fatua (AVEFA) (setting [8]). Also, the pest or weed control at 250 g/ha in assay [2] (setting [9]) and in assay [2] (setting [10]) was 100% in each case.

Consider `Cc1cc(-c2ccc(C#N)cn2)cc(C)c1C1C(=O)CC(CCNC(=O)C2=NOC(C)(C)C2)C1=O` (stereo not drawn) [Compound A119], for which the pest or weed control at 250 g/ha came out at 100% with Lolium perenne (LOLPE) (setting [3]); 80% with Lolium perenne (LOLPE) (setting [4]); 100% in assay [1] (setting [5]); 90% in assay [1] (setting [6]); 100% in the assay with Avena fatua (AVEFA) (setting [7]); 80% with Avena fatua (AVEFA) (setting [8]). The pest or weed control at 250 g/ha in assay [2] (setting [9]) and in assay [2] (setting [10]) was 90% each time.

As to `Cc1cc(-c2ncc(Cl)cn2)cc(C)c1C1C(=O)CC(CCNC(=O)C2=NOC(C)(C)C2)C1=O` (stereo not drawn) [Compound A118], the pest or weed control at 250 g/ha with Lolium perenne (LOLPE) (setting [3]) is 100%; in the assay on Lolium perenne (LOLPE) (setting [4]), 90%; in assay [1] (setting [5]) it was 100%; in assay [1] (setting [6]) it was 90%; in the assay on Avena fatua (AVEFA) (setting [7]), 100%; with Avena fatua (AVEFA) (setting [8]), 90%. Also, the pest or weed control at 250 g/ha in assay [2] (setting [9]) and in assay [2] (setting [10]) was 100% each time.

Regarding `Cc1cc(-c2ccc(F)cc2)cc(C)c1C1C(=O)CC(CCNC(=O)C2=NOC(C)(C)C2)C1=O` (stereo not drawn) [Compound A109], the pest or weed control at 250 g/ha in the assay on Lolium perenne (LOLPE) (setting [3]) was determined as 100%; in the assay on Lolium perenne (LOLPE) (setting [4]) it was 90%; in assay [1] (setting [5]), 100%; in assay [1] (setting [6]), 90%; with Avena fatua (AVEFA) (setting [7]), 100%; in the assay on Avena fatua (AVEFA) (setting [8]), 90%. Further, the figures for the pest or weed control at 250 g/ha in assay [2] (setting [9]) and in assay [2] (setting [10]) were 100% and 90%, respectively.

With `Cc1cc(C)c(C2C(=O)CC(CCN(C)C(=O)Nc3ccccn3)C2=O)c(C)c1` (stereo not drawn) [Compound A101, 1-[2-[2,4-dioxo-3-(2,4,6-trimethylphenyl)cyclopentyl]ethyl]-1-methyl-3-(2-pyridyl)urea], the pest or weed control at 250 g/ha in the assay with Lolium perenne (LOLPE) (setting [3]) came to 40%; in the assay on Lolium perenne (LOLPE) (setting [4]), 30%; in assay [1] (setting [5]) it was 70%; in assay [1] (setting [6]) it was 10%; in the assay on Avena fatua (AVEFA) (setting [7]) it was 70%; in the assay on Avena fatua (AVEFA) (setting [8]) it was 0%. In addition, the pest or weed control at 250 g/ha stood at 70% in assay [2] (setting [9]) and 40% in assay [2] (setting [10]).

For `C#Cc1cc(C)cc(C)c1C1C(=O)CC(CCNC(=O)C2=NOC(C)(C)C2)C1=O` (stereo not drawn) [Compound A123, N-[2-[3-(2-ethynyl-4,6-dimethyl-phenyl)-2,4-dioxo-cyclopentyl]ethyl]-5,5-dimethyl-4H-isoxazole-3-carboxamide], the pest or weed control at 250 g/ha with Lolium perenne (LOLPE) (setting [3]) amounted to 80%; in the assay on Lolium perenne (LOLPE) (setting [4]) it was 90%; in assay [1] (setting [5]), 100%; in assay [1] (setting [6]), 20%; in the assay on Avena fatua (AVEFA) (setting [7]) it was 100%; in the assay with Avena fatua (AVEFA) (setting [8]) it was 50%. The pest or weed control at 250 g/ha in assay [2] (setting [9]) came to 100%; in assay [2] (setting [10]) it was 70%.

As for `Cc1cc(C)c(C2C(=O)CC(CCNc3ncc(C(F)(F)F)cc3F)C2=O)c(C)c1` (stereo not drawn) [Compound A97], the pest or weed control at 250 g/ha is 90% in the assay with Lolium perenne (LOLPE) (setting [3]); 100% in the assay with Lolium perenne (LOLPE) (setting [4]); 100% in assay [1] (setting [5]); 90% in assay [1] (setting [6]); 90% in the assay with Avena fatua (AVEFA) (setting [7]); 90% in the assay on Avena fatua (AVEFA) (setting [8]). Besides, the pest or weed control at 250 g/ha in assay [2] (setting [9]) was found to be 90%; in assay [2] (setting [10]), 80%.

As for `Cc1cc(C)c(C2C(=O)CC(CCNc3ccc([N+](=O)[O-])cc3)C2=O)c(C)c1` (stereo not drawn) [Compound A105], the pest or weed control at 250 g/ha came to 80% in the assay on Lolium perenne (LOLPE) (setting [3]); 20% in the assay with Lolium perenne (LOLPE) (setting [4]); 90% in assay [1] (setting [5]); 10% in assay [1] (setting [6]); 80% in the assay on Avena fatua (AVEFA) (setting [7]); 20% with Avena fatua (AVEFA) (setting [8]). Further, the pest or weed control at 250 g/ha in assay [2] (setting [9]) came to 90%; in assay [2] (setting [10]), 20%.

Take `CC#Cc1cc(C)c(C2C(=O)CC(CCNC(=O)Nc3ccccn3)C2=O)c(C)c1` (stereo not drawn) [Compound A92]: the pest or weed control at 250 g/ha worked out at 100% in the assay with Lolium perenne (LOLPE) (setting [3]); 70% in the assay with Lolium perenne (LOLPE) (setting [4]); 100% in assay [1] (setting [5]); 80% in assay [1] (setting [6]); 100% in the assay on Avena fatua (AVEFA) (setting [7]); 30% in the assay on Avena fatua (AVEFA) (setting [8]). In addition, the values for the pest or weed control at 250 g/ha in assay [2] (setting [9]) and in assay [2] (setting [10]) were 90% and 70%, respectively.

In the case of `Cc1cc(C)c(C2C(=O)CC(CCNc3ncc(Cl)cn3)C2=O)c(C)c1` (stereo not drawn) [Compound A125], the pest or weed control at 250 g/ha came to 100% in the assay on Lolium perenne (LOLPE) (setting [3]); 90% with Lolium perenne (LOLPE) (setting [4]); 100% in assay [1] (setting [5]); 90% in assay [1] (setting [6]); 90% with Avena fatua (AVEFA) (setting [7]); 80% in the assay on Avena fatua (AVEFA) (setting [8]). Besides, the pest or weed control at 250 g/ha in assay [2] (setting [9]) and in assay [2] (setting [10]) was 90% each time.

As for `CNC(=O)NCCC1CC(=O)C(c2c(C)cc(C)cc2C)C1=O` (stereo not drawn) [Compound A94, 1-[2-[2,4-dioxo-3-(2,4,6-trimethylphenyl)cyclopentyl]ethyl]-3-methyl-urea], the pest or weed control at 250 g/ha in the assay with Lolium perenne (LOLPE) (setting [3]) came to 80%; with Lolium perenne (LOLPE) (setting [4]), 100%; in assay [1] (setting [5]), 90%; in assay [1] (setting [6]), 70%; in the assay on Avena fatua (AVEFA) (setting [7]) it was 90%; in the assay on Avena fatua (AVEFA) (setting [8]) it was 60%. Further, the results for the pest or weed control at 250 g/ha in assay [2] (setting [9]) and in assay [2] (setting [10]) were 60% and 80%, respectively.

Turning to `Cc1cc(OCC(F)(F)F)cc(C)c1C1C(=O)CC(CCNC(=O)C2=NOC(C)(C)C2)C1=O` (stereo not drawn) [Compound A115], the pest or weed control at 250 g/ha worked out at 90% in the assay on Lolium perenne (LOLPE) (setting [3]); 90% in the assay on Lolium perenne (LOLPE) (setting [4]); 100% in assay [1] (setting [5]); 70% in assay [1] (setting [6]); 100% with Avena fatua (AVEFA) (setting [7]); 80% in the assay with Avena fatua (AVEFA) (setting [8]). For the same molecule, the pest or weed control at 250 g/ha in assay [2] (setting [9]) and in assay [2] (setting [10]) was 100% each time.

Consider `Cc1cc(-c2ncc(C#N)cn2)cc(C)c1C1C(=O)CC(CCNC(=O)C2=NOC(C)(C)C2)C1=O` (stereo not drawn) [Compound A114], for which the pest or weed control at 250 g/ha came to 100% in the assay with Lolium perenne (LOLPE) (setting [3]); 70% with Lolium perenne (LOLPE) (setting [4]); 100% in assay [1] (setting [5]); 70% in assay [1] (setting [6]); 100% in the assay on Avena fatua (AVEFA) (setting [7]); 80% in the assay with Avena fatua (AVEFA) (setting [8]). Moreover, the pest or weed control at 250 g/ha in assay [2] (setting [9]) and in assay [2] (setting [10]) was 90% throughout.

With `Cc1cc(-n2cc(Cl)cn2)cc(C)c1C1C(=O)CC(CCNc2ccc(C(F)(F)F)cn2)C1=O` (stereo not drawn) [Compound A100], the pest or weed control at 250 g/ha in the assay with Lolium perenne (LOLPE) (setting [3]) turned out to be 100%; in the assay with Lolium perenne (LOLPE) (setting [4]), 70%; in assay [1] (setting [5]), 100%; in assay [1] (setting [6]) it was 90%; with Avena fatua (AVEFA) (setting [7]), 100%; in the assay with Avena fatua (AVEFA) (setting [8]), 50%. In addition, the pest or weed control at 250 g/ha in assay [2] (setting [9]) worked out at 90%; in assay [2] (setting [10]), 60%.

For the molecule `Cc1cc(C)c(C2C(=O)C[C@H](CCNC(=O)C3=NOC(C)(C)C3)C2=O)c(C)c1` (stereo partly drawn) [Compound A103], the pest or weed control at 250 g/ha in the assay on Lolium perenne (LOLPE) (setting [3]) came out at 70%; with Lolium perenne (LOLPE) (setting [4]) it was 80%; in assay [1] (setting [5]) it was 70%; in assay [1] (setting [6]) it was 60%; in the assay with Avena fatua (AVEFA) (setting [7]), 80%; with Avena fatua (AVEFA) (setting [8]), 50%. Further, the pest or weed control at 250 g/ha in assay [2] (setting [9]) and in assay [2] (setting [10]) was 80% throughout.
